From US8378117B2 (priority 2005, dated 2013)
pEC50, pIC50: −log10 of the molar value. Read-outs that look alike come from different tables or passages of the source.

Legend:
CB1 receptor [1] = molecular target: T1, CB1 receptor (Homo sapiens, UniProt P21554); experiment: Binding assay for CB1 agonists or inverse agonists (SK-N-MC membranes, [3H]-CP-55,940); settings: for inhibition at 0.5 µM: read-out: CB1 receptor binding percent inhibition, test concentration 0.5 μM (footnote 10)
T1 construct: expressed in transfected cells
Procedure, shortened: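 Membranes from SK-N-MC cells stably expressing human CB1 incubated with compound and [3H]-CP-55,940 ([…]) for 90 min at 30° C in Tris-HCl pH 7.5, MgCl2, EDTA, fatty-acid-free BSA. Non-specific binding defined with 10 uM WIN 55,212; filtration, scintillation count; IC50 by linear regression.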

CB2 receptor = molecular target: T2, CB2 receptor (Homo sapiens, UniProt P34972); experiment: Binding assay for CB2 agonists or inverse agonists (SK-N-MC membranes, [3H]-CP-55,940); settings: for CB2 receptor binding percent inhibition: test concentration not stated
T2 construct: expressed in transfected cells
Procedure, shortened: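 Membranes from SK-N-MC cells stably expressing human CB2 were incubated with radioligand and test compounds for 90 min at 30 °C in Tris-HCl buffer, pH 7.5, with MgCl2, EDTA and fatty-acid-free BSA. Filter-bound radioactivity was counted; IC50 was derived by linear regression of percent inhibition.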

CB1 receptor [2] = molecular target: T1, CB1 receptor; experiment: cell-based
Source text: The CB1 and CB2 receptors are G-protein coupled receptors (GPCR), which influence cell function via the Gi-protein. These receptors modulate the activity of intracellular adenylate cyclase, which in turn produces the intracellular signal messenger cyclic-AMP (cAMP).
At baseline, or during non-ligand bound conditions, these receptors are constitutively active and tonically suppress adenylate cyclase activity. The binding of an agonist causes further receptor activation and produces additional suppression of adenylate cyclase activity. The binding of an inverse agonist inhibits the constitutive activity of the receptors and results in an increase in adenylate cyclase activity.
By monitoring intracellular adenylate cyclase activity, the ability of compounds to act as agonists or inverse agonists can be determined.
Test compounds were evaluated in SK-N-MC cells which, using standard transfection procedures, were stably transfected with human cDNA for pcDNA3-CRE β-gal and pcDNA3 CB1 receptor (human) or pcDNA3 CB2 receptor (human). By expressing CRE β-gal, the cells produced β-galactosidase in response to CRE promoter activation by cAMP. Cells expressing CRE β-gal and either the human CB1 or CB2 receptor will produce less β-galactosidase when treated with a CB1/CB2 agonist and will produce more β-galactosidase when treated with a CB1/CB2 inverse agonist.
The cells were grown in 96-well plates under standard cell culture conditions at 37° C. in a 5% CO2 atmosphere and culture media (wherein the media was supplemented with 2 mM L-glutamine, […] sodium pyruvate, 10% FBS (fetal bovine serum) and antibiotics).
The change in forskolin induced β-galactosidase activity was determined by setting a vehicle treated cell's activity value at 100% and expressing the β-galactosidase activity measured in a corresponding compound treated cell as a percent of the vehicle treated cell activity.
The EC50 value for functional activity for compounds tested was calculated by linear regression and was obtained from studies in which varying compound concentrations were used.
Where an EC50 value was not obtained for a test compound, the value shown (in %) represents change in functional activity and was obtained from a study in which one compound concentration was used.

[3] = read-out: CB1 receptor binding percent inhibition, test concentration 1 μM (footnote 1)
[4] = CB1 Receptor Functional Inverse Agonist EC50, forskolin induced β-galactosidase activity, SK-N-MC cells
[5] = test concentration 1 μM (footnote 1), 1 µM
[6] = Cannabinoid CB1 Receptor Binding IC50, calculated by linear regression from percent inhibition at various test concentrations
[7] = forskolin induced β-galactosidase activity, SK-N-MC cells, read-out: CB1 Receptor Functional Inverse Agonist EC50
[8] = test concentration 1 μM (footnote 1), read-out: CB2 receptor binding percent inhibition
[9] = calculated by linear regression from percent inhibition at various test concentrations, read-out: Cannabinoid CB1 Receptor Binding IC50

T1 sequence (P21554 whole entry): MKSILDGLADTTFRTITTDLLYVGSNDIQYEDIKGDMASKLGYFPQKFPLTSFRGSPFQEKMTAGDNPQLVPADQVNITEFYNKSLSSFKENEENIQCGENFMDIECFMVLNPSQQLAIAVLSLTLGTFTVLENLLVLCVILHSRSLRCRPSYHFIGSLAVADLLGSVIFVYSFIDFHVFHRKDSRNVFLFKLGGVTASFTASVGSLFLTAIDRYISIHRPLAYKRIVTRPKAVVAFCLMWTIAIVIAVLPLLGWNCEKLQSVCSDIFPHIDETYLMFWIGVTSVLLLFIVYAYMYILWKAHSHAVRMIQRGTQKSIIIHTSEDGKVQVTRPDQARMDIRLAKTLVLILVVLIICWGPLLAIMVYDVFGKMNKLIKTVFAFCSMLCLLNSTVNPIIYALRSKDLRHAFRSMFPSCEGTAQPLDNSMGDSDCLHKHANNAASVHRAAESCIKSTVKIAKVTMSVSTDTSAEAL
T2 sequence (P34972 whole entry): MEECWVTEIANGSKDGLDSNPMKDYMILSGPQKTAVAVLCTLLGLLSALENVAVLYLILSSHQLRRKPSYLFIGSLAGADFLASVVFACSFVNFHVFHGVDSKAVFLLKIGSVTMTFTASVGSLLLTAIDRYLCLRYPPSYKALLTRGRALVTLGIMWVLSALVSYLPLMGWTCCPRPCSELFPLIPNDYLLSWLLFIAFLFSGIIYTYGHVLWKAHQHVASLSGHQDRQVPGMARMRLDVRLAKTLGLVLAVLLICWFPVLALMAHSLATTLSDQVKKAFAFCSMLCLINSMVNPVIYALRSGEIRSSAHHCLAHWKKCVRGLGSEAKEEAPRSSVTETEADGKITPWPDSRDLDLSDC

`O=C(N[C@@H]1c2ccccc2C[C@@H]1O)c1nn(-c2ccc(Cl)cc2Cl)c2c1CCCCC2Cc1cccc(Cl)c1` (single isomer, unassigned) [Cpd 112, (8R*)-8-(3-chloro-benzyl)-1-(2,4-dichloro-phenyl)-1,4,5,6,7,8-hexahydro-cycloheptapyrazole-3-carboxylic acid [(1R,2S)-2-hydroxy-indan-1-yl]-amide] was tested, and the inhibition at 1 µM (CB1 receptor [1]; [3]) was 49%, the “CB2 receptor binding percent inhibition” value (CB2 receptor) was 16% and the pEC50 (CB1 receptor [2]; [4]) was 7.22.
In the case of `O=C(N[C@@H]1c2ccccc2C[C@@H]1O)c1nn(-c2ccc(Cl)cc2Cl)c2c1CCCCC2Cc1cccc(Cl)c1` (single isomer, unassigned) [Cpd 113, (8S*)-8-(3-chloro-benzyl)-1-(2,4-dichloro-phenyl)-1,4,5,6,7,8-hexahydro-cycloheptapyrazole-3-carboxylic acid [(1R,2S)-2-hydroxy-indan-1-yl]-amide], the inhibition at 0.5 µM (CB1 receptor [1]) was 44%, the “CB1 receptor binding percent inhibition” value (CB1 receptor [1]; [5]) was 62% and the “CB1 receptor binding percent inhibition” value (CB1 receptor [1]; test concentration not stated) was 53%. The “CB2 receptor binding percent inhibition” value (CB2 receptor) was 28% and the pEC50 (CB1 receptor [2]; [4]) was 7.00.
For `O=C(N[C@@H]1c2ccccc2C[C@@H]1O)c1nn(C2CCCCC2)c2c1CCCCC2Cc1cccc(F)c1` (single isomer, unassigned) [Cpd 114, (8R*)-1-cyclohexyl-8-(3-fluoro-benzyl)-1,4,5,6,7,8-hexahydro-cycloheptapyrazole-3-carboxylic acid [(1R,2S)-2-hydroxy-indan-1-yl]-amide], the “CB1 receptor binding percent inhibition” value (CB1 receptor [1]; [5]) was “^(1)17%”, the “CB2 receptor binding percent inhibition” value (CB2 receptor) was 47% and the pEC50 (CB1 receptor [2]; [4]) was 7.40.
With `C[C@H](NS(=O)(=O)/C=C/c1nn(-c2ccc(Cl)cc2Cl)c2c1CCCCC2Cc1cccc(Cl)c1)c1ccccc1` (stereo partly drawn) [Cpd 3, (2E)-2-[8-(3-chloro-benzyl)-1-(2,4-dichloro-phenyl)-1,4,5,6,7,8-hexahydro-cycloheptapyrazol-3-yl]-ethenesulfonic acid [(1S)-1-phenyl-ethyl]-amide] the pIC50 (CB1 receptor [1]; [6]) was 5.89, the inhibition at 1 µM (CB1 receptor [1]; [3]) was 60% and the “CB2 receptor binding percent inhibition” value (CB2 receptor) was 26%. It also gave a pEC50 (CB1 receptor [2]; [4]) of 7.15.
For `C[C@@H](NC(=O)c1nn(C2CCCCC2)c2c1CCCCC2Cc1cccc(Cl)c1)c1ccccc1` (stereo partly drawn) [Cpd 8, 8-(3-chloro-benzyl)-1-cyclohexyl-1,4,5,6,7,8-hexahydro-cycloheptapyrazole-3-carboxylic acid [(1R)-1-phenyl-ethyl]-amide], the inhibition at 1 µM (CB1 receptor [1]; [3]) was 30%, the “CB2 receptor binding percent inhibition” value (CB2 receptor) was 5% and the pEC50 (CB1 receptor [2]; [7]) was 6.40.
For `O=C(NC1CCC1)c1nn(-c2ccc(Cl)cc2Cl)c2c1CCCCC2Cc1ccc(Cl)cc1` (stereo not shown) [Cpd 25, 8-(4-chloro-benzyl)-1-(2,4-dichloro-phenyl)-1,4,5,6,7,8-hexahydro-cycloheptapyrazole-3-carboxylic acid cyclobutylamide], the inhibition at 0.5 µM (CB1 receptor [1]) was 30%, the inhibition at 1 µM (CB1 receptor [1]; [3]) was 71% and the “CB1 receptor binding percent inhibition” value (CB1 receptor [1]; test concentration not stated) was 51%. The “CB2 receptor binding percent inhibition” value (CB2 receptor) was 19% and the pEC50 (CB1 receptor [2]; [7]) was 5.92.
With `O=C(NCc1ccc(C(F)(F)F)cc1)c1nn(-c2ccc(Cl)cc2Cl)c2c1CCCCC2Cc1ccc(Cl)cc1` (stereo not shown) [Cpd 26, 8-(4-chloro-benzyl)-1-(2,4-dichloro-phenyl)-1,4,5,6,7,8-hexahydro-cycloheptapyrazole-3-carboxylic acid 4-trifluoromethyl-benzylamide] the inhibition at 1 µM (CB1 receptor [1]; [3]) was 70%, the inhibition at 2 µM (CB1 receptor [1]; read-out: CB1 receptor binding percent inhibition, test concentration 2 μM (footnote 6)) was 55% and the “CB1 receptor binding percent inhibition” value (CB1 receptor [1]; test concentration not stated) was 63%. For the same compound, the inhibition at 1 µM (CB2 receptor; [8]) was 35%, the inhibition at 2 µM (CB2 receptor; test concentration 2 μM (footnote 6), read-out: CB2 receptor binding percent inhibition) was 22% and the “CB2 receptor binding percent inhibition” value (CB2 receptor) was 29%. It also gave a pEC50 (CB1 receptor [2]; [7]) of 6.22.
In the case of `O=C(NN1CCCCC1)c1nn(-c2ccc(Cl)cc2Cl)c2c1CCCCC2Cc1cccc(Cl)c1` (stereo not shown) [Cpd 28, 8-(3-chloro-benzyl)-1-(2,4-dichloro-phenyl)-1,4,5,6,7,8-hexahydro-cycloheptapyrazole-3-carboxylic acid piperidin-1-ylamide], the pIC50 (CB1 receptor [1]; [6]) was 7.00, the inhibition at 1 µM (CB1 receptor [1]; [3]) was 65% and the “CB2 receptor binding percent inhibition” value (CB2 receptor) was 11%. The pEC50 (CB1 receptor [2]; [4]) was 7.30.
`Cn1nc(C(=O)N[C@H]2C3(C)CCC(C3)C2(C)C)c2c1C(Cc1ccccc1Cl)CCCC2` (stereo partly drawn) [Cpd 40, 8-(2-chloro-benzyl)-1-methyl-1,4,5,6,7,8-hexahydro-cycloheptapyrazole-3-carboxylic acid [(2S)-1,3,3-trimethyl-bicyclo[2.2.1]hept-2-yl]-amide] gave a pIC50 (CB1 receptor [1]; [6]) of 7.15, an inhibition at 1 µM (CB1 receptor [1]; [3]) of 84% and an inhibition at 0.015 µM (CB2 receptor; read-out: CB2 receptor binding percent inhibition, test concentration 0.015 μM (footnote 7)) of 65%. The inhibition at 1 µM (CB2 receptor; read-out: CB2 receptor binding percent inhibition, test concentration 1 μM (footnote 1)) was 84%, the “CB2 receptor binding percent inhibition” value (CB2 receptor) was 75% and the pEC50 (CB1 receptor [2]; CB1 Receptor Functional Agonist EC50, SK-N-MC cells, forskolin induced β-galactosidase activity) was 7.00.
`O=C(NC1CCC1)c1nn(-c2ccc(Cl)cc2Cl)c2c1CCCCC2Cc1cccc(F)c1` (stereo not shown) [Cpd 41, 1-(2,4-dichloro-phenyl)-8-(3-fluoro-benzyl)-1,4,5,6,7,8-hexahydro-cycloheptapyrazole-3-carboxylic acid cyclobutylamide] was tested, and the pIC50 (CB1 receptor [1]; [6]) was 6.30, the inhibition at 1 µM (CB1 receptor [1]; [3]) was 68% and the “CB2 receptor binding percent inhibition” value (CB2 receptor) was 46%. The pEC50 (CB1 receptor [2]; [4]) was 7.00.
`CC12CCC(C1)C(C)(C)[C@H]2NC(=O)c1nn(-c2ccc(Cl)cc2Cl)c2c1CCCCC2Cc1cccc(F)c1` (stereo partly drawn) [Cpd 42, 1-(2,4-dichloro-phenyl)-8-(3-fluoro-benzyl)-1,4,5,6,7,8-hexahydro-cycloheptapyrazole-3-carboxylic acid [(2S)-1,3,3-trimethyl-bicyclo[2.2.1]hept-2-yl]-amide] was tested, and the pIC50 (CB1 receptor [1]; [9]) was 6.52, the inhibition at 1 µM (CB1 receptor [1]; [3]) was 65% and the pIC50 (CB2 receptor; calculated by linear regression from percent inhibition at various test concentrations, read-out: Cannabinoid CB2 Receptor Binding IC50) was 6.52. The inhibition at 1 µM (CB2 receptor; [8]) was 52% and the pEC50 (CB1 receptor [2]; [7]) was 6.52.
For `C[C@H](NC(=O)c1nn(C2CCCCC2)c2c1CCCCC2Cc1cccc(F)c1)c1ccccc1` (stereo partly drawn) [Cpd 45, 1-cyclohexyl-8-(3-fluoro-benzyl)-1,4,5,6,7,8-hexahydro-cycloheptapyrazole-3-carboxylic acid [(1S)-1-phenyl-ethyl]-amide], the pIC50 (CB1 receptor [1]; [9]) was 6.15, the inhibition at 1 µM (CB1 receptor [1]; [3]) was 54% and the “CB2 receptor binding percent inhibition” value (CB2 receptor) was 42%. The pEC50 (CB1 receptor [2]; [7]) was 5.96.
`C[C@H](NC(=O)c1nn(Cc2ccccc2)c2c1CCCCC2c1ccccc1)c1ccccc1` (stereo partly drawn) [Cpd 48, 1-benzyl-8-phenyl-1,4,5,6,7,8-hexahydro-cycloheptapyrazole-3-carboxylic acid [(1S)-1-phenyl-ethyl]-amide] was tested, and the pIC50 (CB1 receptor [1]; [9]) was 6.52, the inhibition at 1 µM (CB1 receptor [1]; [3]) was 63% and the “CB2 receptor binding percent inhibition” value (CB2 receptor) was 42%. For the same compound, the pEC50 (CB1 receptor [2]; [7]) was 6.52.
For `O=C(N[C@@H](CO)c1ccccc1)c1nn(C2CCCCC2)c2c1CCCCC2Cc1cccc(F)c1` (stereo partly drawn) [Cpd 55, 1-cyclohexyl-8-(3-fluoro-benzyl)-1,4,5,6,7,8-hexahydro-cycloheptapyrazole-3-carboxylic acid [(1R)-2-hydroxy-1-phenyl-ethyl]-amide], the inhibition at 1 µM (CB1 receptor [1]; read-out: CB1 receptor binding percent inhibition) was 50%, the “CB2 receptor binding percent inhibition” value (CB2 receptor) was 18% and the pEC50 (CB1 receptor [2]; [4]) was 6.40.
`CC12CCC(C1)C(C)(C)[C@H]2NC(=O)c1nn(C2CCCCC2)c2c1CCCCC2Cc1ccc(F)cc1` (stereo partly drawn) [Cpd 58, 1-cyclohexyl-8-(4-fluoro-benzyl)-1,4,5,6,7,8-hexahydro-cycloheptapyrazole-3-carboxylic acid [(2S)-1,3,3-trimethyl-bicyclo[2.2.1]hept-2-yl]-amide] showed a pIC50 (CB1 receptor [1]; [9]) of 6.70, an inhibition at 1 µM (CB1 receptor [1]; [3]) of 75% and an inhibition at 0.015 µM (CB2 receptor; test concentration 0.015 μM (footnote 7), read-out: CB2 receptor binding percent inhibition) of 65%. The inhibition at 1 µM (CB2 receptor; [8]) was 98%, the “CB2 receptor binding percent inhibition” value (CB2 receptor) was 74% and the pEC50 (CB1 receptor [2]; SK-N-MC cells, forskolin induced β-galactosidase activity, read-out: CB1 Receptor Functional Agonist EC50) was 5.85.
For `C[C@H](NS(=O)(=O)/C=C/c1nn(C2CCCCC2)c2c1CCCCC2Cc1cccc(F)c1)c1ccccc1` (stereo partly drawn) [Cpd 75, (2E)-2-[1-cyclohexyl-8-(3-fluoro-benzyl)-1,4,5,6,7,8-hexahydro-cycloheptapyrazol-3-yl]-ethenesulfonic acid [(1S)-1-phenyl-ethyl]-amide], the pIC50 (CB1 receptor [1]; [6]) was 6.70, the “CB1 receptor binding average percent inhibition” value (CB1 receptor [1]; value shown is an average percent inhibition (footnote 5), concentration not given) was 77% and the “CB2 receptor binding percent inhibition” value (CB2 receptor) was 27%. It also gave a pEC50 (CB1 receptor [2]; [4]) of 7.15.
